From US8642609B2, “Modulators of ATP-binding cassette transporters” (Vertex Pharmaceuticals Incorporated, priority 2003, dated 2014)

Target: T1, ΔF508-CFTR (Homo sapiens, UniProt P13569, DEL508-508)
T1 construct: expressed in transfected cells
Experiment: Membrane potential optical assay (FRET/VIPR), identification of correction compounds
Type: cell-based
Conditions: for Emax: relative efficacy
Excerpt: I) Membrane Potential Optical Methods for Assaying ΔF508-CFTR Modulation Properties of Compounds
The optical membrane potential assay utilized voltage-sensitive FRET sensors described by Gonzalez and Tsien (See, Gonzalez, J. E. and R. Y. Tsien (1995) “Voltage sensing by fluorescence resonance energy transfer in single cells” Biophys J 69(4): 1272-80, and Gonzalez, J. E. and R. Y. Tsien (1997) “Improved indicators of cell membrane potential that use fluorescence resonance energy transfer” Chem Biol 4(4): 269-77) in combination with instrumentation for measuring fluorescence changes such as the Voltage/Ion Probe Reader (VIPR) (See, Gonzalez, J. E., K. Oades, et al. (1999) “Cell-based assays and instrumentation for screening ion-channel targets” Drug Discov Today 4(9): 431-439).
These voltage sensitive assays are based on the change in fluorescence resonant energy transfer (FRET) between the membrane-soluble, voltage-sensitive dye, DiSBAC2(3), and a fluorescent phospholipid, CC2-DMPE, which is attached to the outer leaflet of the plasma membrane and acts as a FRET donor. Changes in membrane potential (Vm) cause the negatively charged DiSBAC2(3) to redistribute across the plasma membrane and the amount of energy transfer from CC2-DMPE changes accordingly. The changes in fluorescence emission were monitored using VIPR™ II, which is an integrated liquid handler and fluorescent detector designed to conduct cell-based screens in 96- or 384-well microtiter plates.
Identification of Correction Compounds
To identify small molecules that correct the trafficking defect associated with ΔF508-CFTR; a single-addition HTS assay format was developed. The cells were incubated in serum-free medium for 16 hrs at 37° C. in the presence or absence (negative control) of test compound. As a positive control, cells plated in 384-well plates were incubated for 16 hrs at 27° C. to “temperature-correct” ΔF508-CFTR. The cells were subsequently rinsed 3× with Krebs Ringers solution and loaded with the voltage-sensitive dyes. To activate ΔF508-CFTR, 10 μM forskolin and the CFTR potentiator, genistein (20 μM), were added along with Cl^−-free medium to each well. The addition of Cl^−-free medium promoted Cl^− efflux in response to ΔF508-CFTR activation and the resulting membrane depolarization was optically monitored using the FRET-based voltage-sensor dyes.
NIH3T3 mouse fibroblasts stably expressing ΔF508-CFTR are used for optical measurements of membrane potential. The cells are maintained at 37° C. in 5% CO2 and 90% humidity in Dulbecco's modified Eagle's medium supplemented with 2 mM glutamine, 10% fetal bovine serum, 1×NEAA, β-ME, 1× pen/strep, and 25 mM HEPES in 175 cm^2 culture flasks. For all optical assays, the cells were seeded at 30,000/well in 384-well matrigel-coated plates and cultured for 2 hrs at 37° C. before culturing at 27° C. for 24 hrs. for the potentiator assay. For the correction assays, the cells are cultured at 27° C. or 37° C. with and without compounds for 16-24 hours B) Electrophysiological Assays for assaying ΔF508-CFTR modulation properties of compounds

T1 sequence (P13569 with tags, fused parts or gaps DEL508-508): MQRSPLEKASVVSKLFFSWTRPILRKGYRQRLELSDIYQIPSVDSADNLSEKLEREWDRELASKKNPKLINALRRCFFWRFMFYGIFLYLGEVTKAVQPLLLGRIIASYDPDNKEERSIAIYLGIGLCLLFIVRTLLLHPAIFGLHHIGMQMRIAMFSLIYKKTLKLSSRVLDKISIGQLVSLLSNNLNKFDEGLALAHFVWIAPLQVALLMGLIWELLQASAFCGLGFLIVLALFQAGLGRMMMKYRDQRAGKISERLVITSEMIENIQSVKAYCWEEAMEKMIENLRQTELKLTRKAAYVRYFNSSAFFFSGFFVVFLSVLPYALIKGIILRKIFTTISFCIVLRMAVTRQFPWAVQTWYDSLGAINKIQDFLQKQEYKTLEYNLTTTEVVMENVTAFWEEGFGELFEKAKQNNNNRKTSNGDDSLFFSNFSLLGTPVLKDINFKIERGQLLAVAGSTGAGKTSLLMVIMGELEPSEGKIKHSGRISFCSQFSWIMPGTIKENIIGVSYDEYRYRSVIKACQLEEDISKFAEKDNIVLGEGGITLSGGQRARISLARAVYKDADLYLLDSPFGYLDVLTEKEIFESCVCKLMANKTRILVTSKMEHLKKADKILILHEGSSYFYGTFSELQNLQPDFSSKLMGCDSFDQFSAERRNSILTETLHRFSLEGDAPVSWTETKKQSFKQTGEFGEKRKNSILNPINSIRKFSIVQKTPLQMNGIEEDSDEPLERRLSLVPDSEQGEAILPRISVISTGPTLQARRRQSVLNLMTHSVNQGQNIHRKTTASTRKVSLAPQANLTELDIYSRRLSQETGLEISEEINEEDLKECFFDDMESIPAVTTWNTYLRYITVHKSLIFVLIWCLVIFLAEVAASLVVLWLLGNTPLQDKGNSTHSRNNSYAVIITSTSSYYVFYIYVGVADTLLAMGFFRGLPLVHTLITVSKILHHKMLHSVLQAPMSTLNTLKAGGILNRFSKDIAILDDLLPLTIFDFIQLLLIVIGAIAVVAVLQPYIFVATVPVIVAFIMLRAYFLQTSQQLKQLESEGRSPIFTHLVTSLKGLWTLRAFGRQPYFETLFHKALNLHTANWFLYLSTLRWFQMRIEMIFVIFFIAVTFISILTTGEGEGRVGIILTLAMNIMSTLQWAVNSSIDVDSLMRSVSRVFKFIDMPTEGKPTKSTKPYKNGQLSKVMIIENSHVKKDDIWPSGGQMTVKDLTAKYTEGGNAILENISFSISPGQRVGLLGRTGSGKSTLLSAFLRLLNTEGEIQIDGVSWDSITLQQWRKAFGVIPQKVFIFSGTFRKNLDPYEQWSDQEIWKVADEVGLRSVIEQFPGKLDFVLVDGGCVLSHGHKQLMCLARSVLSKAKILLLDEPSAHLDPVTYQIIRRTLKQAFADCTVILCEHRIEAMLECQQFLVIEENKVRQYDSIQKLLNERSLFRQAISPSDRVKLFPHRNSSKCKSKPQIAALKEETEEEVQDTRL

Row | EC50 [µM] | Emax [%] | Compound
1 | 10 to 25 | 25 to 100 | CC(c1nc2ccc(S(C)(=O)=O)cc2c(=O)n1C)N1CCN(S(=O)(=O)c2ccc(Cl)cc2)CC1 (centres unmarked) [compound 141]
2 | 10 to 25 | 25 to 100 | CC(c1nc2ccc(S(C)(=O)=O)cc2c(=O)n1C)N1CCN(S(=O)(=O)c2ccc(Br)cc2)CC1 (centres unmarked) [compound 142]
3 | 25 to 60 | 25 to 100 | COc1ccc(S(=O)(=O)N2CCN(C(C)c3nc4ccc(C(N)=O)cc4c(=O)n3C)CC2)cc1 (centres unmarked) [compound 143]
4 | 25 to 60 | 25 to 100 | COc1ccc(S(=O)(=O)N2CCN(C(C)c3nc4ccc(-c5nnn[nH]5)cc4c(=O)n3C)CC2)cc1 (centres unmarked) [compound 144]
5 | 10 to 25 | 25 to 100 | COc1ccc(S(=O)(=O)N2CCN(C(C)c3nc4ccc(N)cc4c(=O)n3C)CC2)cc1 (centres unmarked) [compound 145]
6 | < 10 | > 100 | CC(c1nc2ccc(N)cc2c(=O)n1C)N1CCN(S(=O)(=O)c2ccc(Br)cc2)CC1 (centres unmarked) [compound 146]
7 | < 10 | > 100 | CCCn1c([C@H](C)N2CCN(S(=O)(=O)c3ccc(Br)cc3)CC2)nc2ccccc2c1=O [compound 147]
8 | < 10 | > 100 | CCCn1c([C@@H](C)N2CCN(S(=O)(=O)c3ccc(Br)cc3)CC2)nc2ccccc2c1=O [compound 148]
9 | < 10 | 25 to 100 | COc1ccc(S(=O)(=O)N2CCN(C(C)(C)c3nc4ccc(Cl)cc4c(=O)n3C)CC2)cc1 [compound 149]
10 | 10 to 25 | 25 to 100 | CCCn1c(CN2CCN(S(=O)(=O)c3ccc(OC)cc3)CC2)nc2ccccc2c1=O [compound 150]
11 | 10 to 25 | > 100 | CCCn1c(CN2CCN(S(=O)(=O)c3ccc(Cl)cc3)CC2)nc2ccccc2c1=O [compound 151]
12 | < 10 | > 100 | CCCn1c(CN2CCN(S(=O)(=O)c3ccc(Br)cc3)CC2)nc2ccccc2c1=O [compound 152]
13 | 10 to 25 | 25 to 100 | CC(c1nc2ccccc2c(=O)n1CCO)N1CCN(S(=O)(=O)c2ccc(Br)cc2)CC1 (centres unmarked) [compound 153]
14 | 25 to 60 | > 100 | CC(c1nc2ccc(-c3nnn[nH]3)cc2c(=O)n1C)N1CCN(S(=O)(=O)c2ccc(Cl)cc2)CC1 (centres unmarked) [compound 154]
15 | < 10 | 25 to 100 | COc1ccc(S(=O)(=O)N2CCN(C(C)c3nc4ccc(NC(C)=O)cc4c(=O)n3C)CC2)cc1 (centres unmarked) [compound 155]
16 | 10 to 25 | 25 to 100 | CC(c1nc2ccc(C(N)=O)cc2c(=O)n1C)N1CCN(S(=O)(=O)c2ccc(Br)cc2)CC1 (centres unmarked) [compound 156]
17 | 25 to 60 | 25 to 100 | CC(c1nc2ccc(C(N)=O)cc2c(=O)n1C)N1CCN(S(=O)(=O)c2ccc(Cl)cc2)CC1 (centres unmarked) [compound 157]
18 | 25 to 60 | < 25 | CCCOc1nc(CC)nc2ccccc12 [compound 158]
19 | 25 to 60 | < 25 | CCc1nc(N(C)C)c2ccccc2n1 [compound 159]
20 | 25 to 60 | < 25 | COc1ccc(S(=O)(=O)NC2CCN(C(C)c3nc4ccccc4c(=O)n3C)C2)cc1 (centres unmarked) [compound 161]

Continued, molecule first:

Row | Compound | EC50 [µM] | Emax [%]
21 | Cc1ccccc1S(=O)(=O)N1CCN(C(C)c2nc3cc(Cl)ccc3c(=O)n2C)CC1 (centres unmarked) [compound 109] | 10 to 25 | 25 to 100
22 | CC(c1nc2cc(Cl)ccc2c(=O)n1C)N1CCN(S(=O)(=O)c2ccc(S(C)(=O)=O)cc2)CC1 (centres unmarked) [compound 110] | 10 to 25 | < 25
23 | CC(=O)Nc1ccc(S(=O)(=O)N2CCN(C(C)c3nc4cc(Cl)ccc4c(=O)n3C)CC2)cc1 (centres unmarked) [compound 111] | 10 to 25 | 25 to 100
24 | CC(c1nc2cc(Cl)ccc2c(=O)n1C)N1CCN(C(=O)Cc2ccccc2)CC1 (centres unmarked) [compound 112] | 10 to 25 | < 25
25 | Cc1cccc(CC(=O)N2CCN(C(C)c3nc4cc(Cl)ccc4c(=O)n3C)CC2)c1 (centres unmarked) [compound 113] | 10 to 25 | < 25
26 | CC(c1nc2ccc(Br)cc2c(=O)n1C)N1CCN(S(=O)(=O)c2ccccc2)CC1 (centres unmarked) [compound 114] | 10 to 25 | 25 to 100
27 | Cc1ccc(S(=O)(=O)N2CCN(C(C)c3nc4ccc(Br)cc4c(=O)n3C)CC2)cc1 (centres unmarked) [compound 115] | 10 to 25 | < 25
28 | COc1ccc(S(=O)(=O)N2CCN(C(C)c3nc4ccc(Br)cc4c(=O)n3C)CC2)cc1 (centres unmarked) [compound 116] | < 10 | 25 to 100
29 | CC(c1nc2ccc(Br)cc2c(=O)n1C)N1CCN(S(=O)(=O)c2ccc(Cl)cc2)CC1 (centres unmarked) [compound 117] | 10 to 25 | 25 to 100
30 | CC(c1nc2ccc(Br)cc2c(=O)n1C)N1CCN(S(=O)(=O)c2ccc(Br)cc2)CC1 (centres unmarked) [compound 118] | < 10 | 25 to 100
31 | Cc1cccc(C(=O)N2CCN(C(C)c3nc4cc(Cl)ccc4c(=O)n3C)CC2)c1 (centres unmarked) [compound 119] | 10 to 25 | 25 to 100
32 | Cc1ccc(C(=O)N2CCN(C(C)c3nc4cc(Cl)ccc4c(=O)n3C)CC2)cc1 (centres unmarked) [compound 120] | 10 to 25 | < 25
33 | CC(c1nc2cc(Cl)ccc2c(=O)n1C)N1CCN(C(=O)c2ccc(F)cc2)CC1 (centres unmarked) [compound 121] | 10 to 25 | < 25
34 | COc1ccc(C(=O)N2CCN(C(C)c3nc4cc(Cl)ccc4c(=O)n3C)CC2)cc1 (centres unmarked) [compound 122] | 10 to 25 | < 25
35 | CC(c1nc2ccc(C#N)cc2c(=O)n1C)N1CCN(S(=O)(=O)c2ccccc2)CC1 (centres unmarked) [compound 123] | 10 to 25 | < 25
36 | COc1ccc(S(=O)(=O)N2CCN(C(C)c3nc4ccc(C#N)cc4c(=O)n3C)CC2)cc1 (centres unmarked) [compound 124] | 10 to 25 | 25 to 100

Row | Compound | EC50 [µM] | Emax [%]
37 | Cc1ccc(S(=O)(=O)N2CCN(C(C)c3nc4ccc(C#N)cc4c(=O)n3C)CC2)cc1 (centres unmarked) [compound 125] | 10 to 25 | 25 to 100
38 | CC(c1nc2ccc(C#N)cc2c(=O)n1C)N1CCN(S(=O)(=O)c2ccc(Cl)cc2)CC1 (centres unmarked) [compound 126] | 10 to 25 | 25 to 100
39 | CC(c1nc2ccccc2c(=O)[nH]1)N1CCN(S(=O)(=O)c2ccc(Br)cc2)CC1 (centres unmarked) [compound 127] | 10 to 25 | 25 to 100
40 | CC(c1nc2ccccc2c(=O)[nH]1)N1CCN(S(=O)(=O)c2ccccc2)CC1 (centres unmarked) [compound 128] | 10 to 25 | < 25
41 | Cc1ccc(S(=O)(=O)N2CCN(C(C)c3nc4ccccc4c(=O)[nH]3)CC2)cc1 (centres unmarked) [compound 129] | 10 to 25 | < 25
42 | COc1ccc(S(=O)(=O)N2CCN(C(C)c3nc4ccccc4c(=O)[nH]3)CC2)cc1 (centres unmarked) [compound 130] | 10 to 25 | < 25
43 | CC(c1nc2ccccc2c(=O)[nH]1)N1CCN(S(=O)(=O)c2ccc(Cl)cc2)CC1 (centres unmarked) [compound 131] | 10 to 25 | < 25
44 | COc1ccc2nc(C(C)N3CCN(S(=O)(=O)c4ccc(Br)cc4)CC3)n(C)c(=O)c2c1 (centres unmarked) [compound 132] | < 10 | > 100
45 | COc1ccc2nc(C(C)N3CCN(S(=O)(=O)c4ccccc4)CC3)n(C)c(=O)c2c1 (centres unmarked) [compound 133] | 10 to 25 | 25 to 100
46 | COc1ccc2nc(C(C)N3CCN(S(=O)(=O)c4ccc(C)cc4)CC3)n(C)c(=O)c2c1 (centres unmarked) [compound 134] | 10 to 25 | 25 to 100
47 | COc1ccc(S(=O)(=O)N2CCN(C(C)c3nc4ccc(OC)cc4c(=O)n3C)CC2)cc1 (centres unmarked) [compound 135] | 10 to 25 | 25 to 100
48 | COc1ccc2nc(C(C)N3CCN(S(=O)(=O)c4ccc(Cl)cc4)CC3)n(C)c(=O)c2c1 (centres unmarked) [compound 136] | < 10 | > 100
49 | COc1ccc(S(=O)(=O)N2CCN(Cc3nc4ccc(Cl)cc4c(=O)n3C)CC2)cc1 [compound 137] | 10 to 25 | 25 to 100
50 | CC(c1nc2ccc(S(C)(=O)=O)cc2c(=O)n1C)N1CCN(S(=O)(=O)c2ccccc2)CC1 (centres unmarked) [compound 138] | 10 to 25 | < 25
51 | Cc1ccc(S(=O)(=O)N2CCN(C(C)c3nc4ccc(S(C)(=O)=O)cc4c(=O)n3C)CC2)cc1 (centres unmarked) [compound 139] | 10 to 25 | 25 to 100
52 | COc1ccc(S(=O)(=O)N2CCN(C(C)c3nc4ccc(S(C)(=O)=O)cc4c(=O)n3C)CC2)cc1 (centres unmarked) [compound 140] | 10 to 25 | 25 to 100
